Article PMC9459060 (Journal of Ginseng Research, 2022)

Molecular target: T1, SLC5A1 (Homo sapiens, UniProt P13866)
T1 sequence (P13866 1-664): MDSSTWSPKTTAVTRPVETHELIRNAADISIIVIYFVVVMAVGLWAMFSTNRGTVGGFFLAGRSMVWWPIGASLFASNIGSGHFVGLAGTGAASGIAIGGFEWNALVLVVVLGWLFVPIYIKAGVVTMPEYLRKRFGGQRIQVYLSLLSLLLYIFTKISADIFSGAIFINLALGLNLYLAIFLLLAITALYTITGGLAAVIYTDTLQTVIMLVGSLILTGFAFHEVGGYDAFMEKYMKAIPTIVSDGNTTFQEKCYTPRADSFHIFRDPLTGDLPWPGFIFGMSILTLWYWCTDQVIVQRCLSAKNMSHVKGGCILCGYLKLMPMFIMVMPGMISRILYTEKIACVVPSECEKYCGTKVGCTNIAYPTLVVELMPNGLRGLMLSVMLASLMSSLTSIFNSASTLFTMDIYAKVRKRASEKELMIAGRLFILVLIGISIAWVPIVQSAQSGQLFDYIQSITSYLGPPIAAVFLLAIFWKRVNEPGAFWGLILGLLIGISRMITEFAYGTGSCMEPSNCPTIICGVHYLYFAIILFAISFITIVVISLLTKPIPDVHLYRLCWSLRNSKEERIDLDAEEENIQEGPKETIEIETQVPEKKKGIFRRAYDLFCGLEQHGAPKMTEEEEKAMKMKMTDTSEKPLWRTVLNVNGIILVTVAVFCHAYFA
Experiment: SPR
Assay type: binding

## CC(C)=CCC[C@](C)(O[C@@H]1O[C@H](CO)[C@@H](O)[C@H](O)[C@H]1O)[C@H]1CC[C@]2(C)[C@@H]1[C@H](O)C[C@@H]1[C@@]3(C)CC[C@H](O[C@@H]4O[C@H](CO)[C@@H](O)[C@H](O)[C@H]4O[C@@H]4O[C@H](CO)[C@@H](O)[C@H](O)[C@H]4O)C(C)(C)[C@@H]3CC[C@]12C [ginsenoside Rd]
  Kd: 680 nM
